Results reported in PubChem BioAssay AID1963826 (Molecular Pharmacology Branch, DTP, NCI, 2024).

Test system: 926638-142-R-J1-PDC complex spheroid viability
Assay: Anticancer human tumor 926638-142-R-J1-PDC patient-derived endometrial carcinoma cell line growth inhibition [POLQ]
Settings: for IC50: curve of first compound; for viability, T/C: stronger effect = lower value; active means viability on the fitted dose curve at most 10% of control; inactive means the rest
Description: Multicellular complex tumor spheroid response to Polymerase (POL) inhibitors (novobiocin, ART-558, RP6685) in combination with a variety of drugs and investigational agents in selected tumor cell lines
The POL inhibitors (novobiocin, ART-558, and RP6685) were evaluated both individually and in combination with standard of care and investigational anticancer small molecules within a complex spheroid model of solid tumors. . Complex spheroids include a stromal component modeled by human endothelial cells (HUVEC) and fibroblasts modeled by human mesenchymal stem cells (MSCs). The concentration ranges selected for each drug and investigational agent were based upon clinically achievable concentrations if the clinical Cmax of the agent was known.
Compounds. The drugs and investigational agents: novobiocin (NSC847541), ART-558 (NSC835418), RP-6685 (NSC848927), peposertib (NSC802822), ceralasertib (NSC780249), elimusertib (NSC800525), camonsertib (NSC841442), AZD-1390 (NSC803789), olaparib (NSC753686), talazoparib (NSC767125), rucaparib (NSC756644), sotorasib (NSC818433), MRTX-1133 (NSC836407), SN-38 (NSC673596), topotecan (NSC609699), epotoside (NSC141540), doxorubicin (NSC123127), gemcitabine (NSC613327), 5-fluorouracil (NSC19893), paclitaxel (NSC125973), vemurafenib (NSC761431), MSA-2 (NSC828583), SN-011 (NSC837082), adavosertib (NSC754352), prexasertib (NSC758257), carboplatin (NSC241240) and oxaliplatin (NSC266046), were obtained from the National Cancer Institute (NCI) Developmental Therapeutics Program Chemical Repository (21). The FDA-approved anticancer drug set is available from the Developmental Therapeutics Program at https://dtp.cancer.gov/organization/dscb/obtaining/. […] The stock solutions were prepared in dimethyl sulfoxide (DMSO, Sigma-Aldrich, St. Louis, MO, cat. D2650), except for the platinum compounds which were prepared in saline (Quality Biological, Gaithersburg, MD, cat. 114-055-101), at 800-fold the tested concentration and stored at -70 degrees C prior to their use. All drugs and investigational agents were tested over a range starting from a high concentration at or near the clinical Cmax and decreasing in half-log increments. If the clinical Cmax for an agent had not been determined, the highest concentration tested was 10 microM, except for SN-38, which was tested at a high concentration of 1 microM.
Cell Culture. All cells were maintained in an incubator at 37 degrees C and 5% CO2 with 95% humidity. The PDC lines were cultured according to standard operating procedures established by the NCI PDMR (https://pdmr.cancer.gov). Table 3 of the manuscript, lists the cell lines along with the number of the three cell types plated to form the mct-spheroids and media for tumor cell growth. After thawing, all PDC lines, except 997537-175-T-J1-PDC and 415267-285-R-J2-PDC, were cultured in Matrigel-coated flasks prepared with a working solution of 1X Ham's F-12 nutrient mix, without supplementation (Thermo Fisher Scientific, cat. 11765054), 100 U/mL penicillin-streptomycin (Thermo Fisher Scientific, cat. 15140122), and 2.5% Matrigel (Corning Inc., Corning, NY, cat. 354248) for the first three passages. The two PDC lines 997537-175-T-J1-PDC and 415267-285-R-J2-PDC were cultured on uncoated flasks. The 857933-349-R-J2-PDC line was cultured in 6C/Colon 1B media containing advanced DMEM/F-12 (Thermo Fisher Scientific, cat. 12634028), 10 mM HEPES (Thermo Fisher Scientific, cat. 15630080), 1X GlutaMAX supplement (Thermo Fisher Scientific, cat. 35050061), 0.1 mg/mL primocin (InvivoGen, San Diego, CA, cat. ant-pm-2), 10% defined fetal bovine serum, heat inactivated (HyClone Laboratories Inc., Logan, UT, cat. SH30070.03HI), 50% L-WRN conditioned media (ATCC, cat. CRL-3276), 1.25 mM N-Acetyl-L-cysteine (Sigma-Aldrich, cat. A9165), 10 mM nicotinamide (Sigma-Aldrich, cat. N0636), 1X B-27 supplement (Thermo Fisher Scientific, cat. 17504044), 1X N-2 supplement (Thermo Fisher Scientific, cat. […]

[1] = second compound 0.0316 µM, first compound 0.0316 µM
[2] = second compound 0.0316 µM, first compound 0.1 µM
[3] = second compound 0.0316 µM, first compound 0.316 µM
[4] = second compound 0.0316 µM, first compound 1 µM
[5] = second compound 0.1 µM, first compound 0.0316 µM
[6] = second compound 0.1 µM, first compound 0.1 µM
[7] = second compound 0.1 µM, first compound 0.316 µM
[8] = second compound 0.1 µM, first compound 1 µM
[9] = second compound 0.316 µM, first compound 0.0316 µM
[10] = second compound 0.316 µM, first compound 0.1 µM
[11] = second compound 0.316 µM, first compound 0.316 µM
[12] = second compound 0.316 µM, first compound 1 µM
[13] = second compound 1 µM, first compound 0.0316 µM
[14] = second compound 1 µM, first compound 0.1 µM
[15] = second compound 1 µM, first compound 0.316 µM
[16] = second compound 1 µM, first compound 1 µM
[17] = second compound 3.16 µM, first compound 0.0316 µM
[18] = second compound 3.16 µM, first compound 0.1 µM
[19] = second compound 3.16 µM, first compound 0.316 µM
[20] = second compound 3.16 µM, first compound 1 µM
[21] = second compound 10 µM, first compound 0.0316 µM
[22] = second compound 10 µM, first compound 0.1 µM
[23] = second compound 10 µM, first compound 0.316 µM
[24] = second compound 10 µM, first compound 1 µM
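Further: spheroids exposed to drugs for one week before readout.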
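Wherever viability, T/C is given: percent viability relative to DMSO vehicle control wells set as 100%.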

CCc1c2c(nc3ccc(O)cc13)-c1cc3c(c(=O)n1C2)COC(=O)[C@]3(O)CC + COC1C(OC(N)=O)C(O)C(Oc2ccc3c(O)c(NC(=O)c4ccc(O)c(CC=C(C)C)c4)c(=O)oc3c2C)OC1(C)C
13.6 nM: IC50 (second compound 10 µM)
12.6 nM: IC50 (second compound 0.1 µM)
12.1 nM: IC50 (second compound 3.16 µM)
8.81 nM: IC50 (second compound 0.0316 µM)
10.7 nM: IC50 (second compound 1 µM)
11.9 nM: IC50 (second compound 0.316 µM)
inactive: viability, T/C (second compound 0.0316 µM, first compound 0.00316 µM) 79.4% | viability, T/C (second compound 0.0316 µM, first compound 0.01 µM) 42% | viability, T/C [1] 30.3% | viability, T/C [2] 19.2% | viability, T/C (second compound 0.1 µM, first compound 0.00316 µM) 65.7% | viability, T/C (second compound 0.1 µM, first compound 0.01 µM) 54.1% | viability, T/C [5] 35.9% | viability, T/C [6] 17.1% | viability, T/C [7] 14.9% | viability, T/C (second compound 0.316 µM, first compound 0.00316 µM) 68.6% | viability, T/C (second compound 0.316 µM, first compound 0.01 µM) 54% | viability, T/C [9] 32% | viability, T/C [10] 19.1% | viability, T/C (second compound 1 µM, first compound 0.00316 µM) 61.8% | viability, T/C (second compound 1 µM, first compound 0.01 µM) 53.5% | viability, T/C [13] 30.4% | viability, T/C [14] 20.2% | viability, T/C (second compound 3.16 µM, first compound 0.00316 µM) 57.8% | viability, T/C (second compound 3.16 µM, first compound 0.01 µM) 49.7% | viability, T/C [17] 40.5% | viability, T/C [18] 17.7% | viability, T/C (second compound 10 µM, first compound 0.00316 µM) 59.1% | viability, T/C (second compound 10 µM, first compound 0.01 µM) 57.4% | viability, T/C [21] 35.7% | viability, T/C [22] 21.5%
active: viability, T/C [3] 7.89% | viability, T/C [4] 4.74% | viability, T/C [8] 4.58% | viability, T/C [11] 9.36% | viability, T/C [12] 4.49% | viability, T/C [15] 8.68% | viability, T/C [16] 5.03% | viability, T/C [19] 8.91% | viability, T/C [20] 5.57% | viability, T/C [23] 9.84% | viability, T/C [24] 6.1%

Nc1ccn(C2OC(CO)C(O)C2(F)F)c(=O)n1 (centres undefined) + COC1C(OC(N)=O)C(O)C(Oc2ccc3c(O)c(NC(=O)c4ccc(O)c(CC=C(C)C)c4)c(=O)oc3c2C)OC1(C)C
874 nM: IC50 (second compound 3.16 µM)
inactive: viability, T/C [1] 81.7% | viability, T/C [2] 70.2% | viability, T/C [3] 49.4% | viability, T/C [4] 59.7% | viability, T/C (second compound 0.0316 µM, first compound 3.16 µM) 41.4% | viability, T/C (second compound 0.0316 µM, first compound 10 µM) 26.2% | viability, T/C [5] 86.2% | viability, T/C [6] 67.3% | viability, T/C [7] 61.6% | viability, T/C [8] 55% | viability, T/C (second compound 0.1 µM, first compound 3.16 µM) 50.3% | viability, T/C (second compound 0.1 µM, first compound 10 µM) 26.3% | viability, T/C [9] 75.8% | viability, T/C [10] 61.4% | viability, T/C [11] 47% | viability, T/C [12] 52.4% | viability, T/C (second compound 0.316 µM, first compound 3.16 µM) 36.8% | viability, T/C (second compound 0.316 µM, first compound 10 µM) 33.1% | viability, T/C [13] 81.3% | viability, T/C [14] 70.7% | viability, T/C [15] 56.6% | viability, T/C [16] 45.6% | viability, T/C (second compound 1 µM, first compound 3.16 µM) 48.7% | viability, T/C (second compound 1 µM, first compound 10 µM) 28.2% | viability, T/C [17] 79% | viability, T/C [18] 62.8% | viability, T/C [19] 55.8% | viability, T/C [20] 51.4% | viability, T/C (second compound 3.16 µM, first compound 3.16 µM) 45.7% | viability, T/C (second compound 3.16 µM, first compound 10 µM) 25% | viability, T/C [21] 83.3% | viability, T/C [22] 73.8% | viability, T/C [23] 41.7% | viability, T/C [24] 46.9% | viability, T/C (second compound 10 µM, first compound 3.16 µM) 47.1% | viability, T/C (second compound 10 µM, first compound 10 µM) 28.2%
1600 nM: IC50 (second compound 0.1 µM)
1010 nM: IC50 (second compound 0.0316 µM)
924 nM: IC50 (second compound 1 µM)
470 nM: IC50 (second compound 0.316 µM)
463 nM: IC50 (second compound 10 µM)
